Structures can show the parent of a compound that is named as a salt.
Legend:
NK-1 receptor = molecular target: T1, NK-1 receptor (Homo sapiens, UniProt P25103); assay: NK-1 Receptor Binding Assay (125I-labeled substance P, IM9 cells); conditions: inhibition of 125I-substance P binding to IM9 cells, 45 minutes at 4° C.; certain values may be average of more than one experiment
T1 construct: In this assay an aliquot of IM9 cells; endogenous in cells; host or cells: IM9 cells
Experimental: (§1) The biological activity of the compounds of the present invention is evaluated employing an initial screening assay which rapidly and accurately measured the binding of the tested compound to known NK-1 and NK-2 receptor sites. Assays useful for evaluating tachykinin receptor antagonists are well known in the art. See, e.g., J. Jukic, et al., Life Sciences, 49:1463-1469 (1991); N. Kucharczyk, et al., Journal of Medicinal Chemistry, 36:1654-1661 (1993); N. Rouissi, et al., Biochemical and Biophysical Research Communications, 176:894-901 (1991).
NK-1 Receptor Binding Assay
Radioreceptor binding assays are performed using a derivative of a previously published protocol. D. G. Payan, et al., Journal of Immunology, 133:3260-3265 (1984). In this assay an aliquot of IM9 cells (1×10^6 cells/tube in […] medium supplemented with 10% fetal calf serum) is incubated with 20 pM ^125 I-labeled substance P in the presence of increasing competitor concentrations for 45 minutes at 4° C.
The IM9 cell line is a well-characterized cell line which is readily available to the public. See, e.g., Annals of the New York Academy of Science, 190: 221-234 (1972); Nature (London), 251:443-444 (1974); Proceedings of the National Academy of Sciences (USA), 71:84-88 (1974). These cells are routinely cultured in RPMI 1640 supplemented with 50 μg/ml gentamicin sulfate and 10% fetal calf serum.
The reaction is terminated by filtration through a glass fiber filter harvesting system using filters previously soaked for 20 minutes in 0.1% polyethylenimine. Specific binding of labeled substance P is determined in the presence of 20 nM unlabeled ligand.
(§2) Column 1 provides the example number of the test antagonist compound as detailed supra. The next columns define the concentration of the test compound (in nanomolar quantities) which inhibits fifty percent of the binding of the appropriate neurokinin, as defined in the column heading. Certain values may represent the average of more than one experiment.

human NK-2 receptor = molecular target: T2, human NK-2 receptor (Homo sapiens, UniProt P21452); assay: NK-2 Receptor Binding Assay ([125I]iodohistidyl-neurokinin A, CHO-hNK-2R membranes); conditions: inhibition of [125I]iodohistidyl-neurokinin A binding, 1 hour at room temperature, certain values may be average of more than one experiment
T2 construct: expressed in transfected cells; host or cells: CHO-hNK-2R cells (membranes)
T2 sequence (P21452 1-398): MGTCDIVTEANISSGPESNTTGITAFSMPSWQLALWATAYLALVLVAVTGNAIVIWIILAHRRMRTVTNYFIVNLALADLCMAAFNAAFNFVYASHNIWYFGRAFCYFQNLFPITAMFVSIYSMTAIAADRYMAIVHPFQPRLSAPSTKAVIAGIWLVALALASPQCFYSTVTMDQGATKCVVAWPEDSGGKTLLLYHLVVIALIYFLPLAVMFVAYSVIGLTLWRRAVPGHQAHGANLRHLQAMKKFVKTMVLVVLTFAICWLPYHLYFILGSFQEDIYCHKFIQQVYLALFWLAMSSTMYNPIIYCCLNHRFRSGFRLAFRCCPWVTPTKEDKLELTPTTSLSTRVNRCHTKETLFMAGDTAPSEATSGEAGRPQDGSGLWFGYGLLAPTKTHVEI
Experimental: as §1
NK-2 Receptor Binding Assay
The CHO-hNK-2R cells, a CHO-derived cell line transformed with the human NK-2 receptor, expressing about 400,000 such receptors per cell, are grown in 75 cm^2 flasks or roller bottles in minimal essential medium (alpha modification) with 10% fetal bovine serum. The gene sequence of the human NK-2 receptor is given in N. P. Gerard, et al., Journal of Biological Chemistry, 265:20455-20462 (1990).
For preparation of membranes, 30 confluent roller bottle cultures are dissociated by washing each roller bottle with 10 ml of Dulbecco's phosphate buffered saline (PBS) without calcium and magnesium, followed by addition of 10 ml of enzyme-free cell dissociation solution (PBS-based, from Specialty Media, Inc.). After an additional 15 minutes, the dissociated cells are pooled and centrifuged at 1,000 RPM for 10 minutes in a clinical centrifuge. Membranes are prepared by homogenization of the cell pellets in 300 ml 50 mM Tris buffer, pH 7.4 with a Tekmar® homogenizer for 10-15 seconds, followed by centrifugation at 12,000 RPM (20,000 x g) for 30 minutes using a Beckman JA-14® rotor. The pellets are washed once using the above procedure. and the final pellets are resuspended in 100-120 ml 50 mM Tris buffer, pH 7.4, and 4 ml aliquots stored frozen at -70° C. The protein concentration of this preparation is 2 mg/ml.
For the receptor binding assay, one 4-ml aliquot of the CHO-hNK-2R membrane preparation is suspended in 40 ml of assay buffer containing 50 mM Tris, pH 7.4, 3 mM manganese chloride, 0.02% bovine serum albumin (BSA) and 4 μg/ml chymostatin. A 200 μl volume of the homogenate (40 μg protein) is used per sample. The radioactive ligand is [^125 I]iodohistidyl-neurokinin A (New England Nuclear, NEX-252), 2200 Ci/mmol. The ligand is prepared in assay buffer at 20 nCi per 100 μl; the final concentration in the assay is 20 pM. Non-specific binding is determined using 1 μM eledoisin. Ten concentrations of eledoisin from 0.1 to 1000 nM are used for a standard concentration-response curve.
All samples and standards are added to the incubation in 10 μl dimethylsulfoxide (DMSO) for screening (single dose) or in 5 μl DMSO for IC50 determinations. The order of additions for incubation is 190 or 195 μl assay buffer, 200 μl homogenate, 10 or 5 μl sample in DMSO, 100 μl radioactive ligand. The samples are incubated 1 hour at room temperature and then filtered on a cell harvester through filters which had been presoaked for two hours in 50 mM Tris buffer, pH 7.7, containing 0.5% BSA. The filter is washed 3 times with approximately 3 ml of cold 50 mM Tris buffer, pH 7.7. The filter circles are then punched into 12×75 mm polystyrene tubes and counted in a gamma counter.
as §2

benzodiazepine receptor = conditions: Biochemical Pharmacology, 30:3016-3019 (1981); cited from earlier work
rat alpha-fetoprotein = conditions: Journal of Steroid Biochemistry, 16:503-507 (1982); in vitro; cited from earlier work
[1] = test system: glucose transport in human erythrocytes; conditions: Arzneim-Forsch, 32(I):684-685 (1982); in vitro; cited from earlier work
human erythrocytes = conditions: Arzneim-Forsch, 32(I):684-685 (1982); in vitro; cited from earlier work

T1 sequence (P25103 whole entry): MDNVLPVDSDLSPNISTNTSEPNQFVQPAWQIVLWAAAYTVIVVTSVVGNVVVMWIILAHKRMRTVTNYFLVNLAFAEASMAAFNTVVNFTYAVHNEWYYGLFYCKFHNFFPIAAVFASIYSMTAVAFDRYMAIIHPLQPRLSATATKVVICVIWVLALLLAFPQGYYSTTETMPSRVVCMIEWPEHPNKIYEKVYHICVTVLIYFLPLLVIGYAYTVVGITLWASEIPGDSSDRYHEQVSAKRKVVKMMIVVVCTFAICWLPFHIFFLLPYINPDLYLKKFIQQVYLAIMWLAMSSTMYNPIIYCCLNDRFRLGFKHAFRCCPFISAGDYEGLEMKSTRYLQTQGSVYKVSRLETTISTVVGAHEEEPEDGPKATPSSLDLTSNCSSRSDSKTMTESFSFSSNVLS

Row | Structure (SMILES) | IC50 (NK-1 receptor) [nM] | IC50 (human NK-2 receptor) [nM] | other results
1 | O=C(CN1CCC(Cc2ccccc2)CC1)NC(Cc1c[nH]c2ccccc12)C(=O)NCc1ccccc1Cl (centres unmarked) [Example 1, N-(2-chlorobenzyl)-3-(1H-indol-3-yl)-2-[(4-benzylpiperidin-1-yl)acetyl]amino]propanamide hydrochloride salt] | 290 | 330 | –
2 | O=C1CN(CC(=O)NC(Cc2c[nH]c3ccccc23)C(=O)NCc2ccccc2Cl)C(=O)CN1 (centres unmarked) [Example 2] | 230 | 1500 | –
3 | O=C(CN1CC(=O)N(Cc2ccccc2)CC1=O)NC(Cc1c[nH]c2ccccc12)C(=O)NCCc1ccccc1 (centres unmarked) [Example 5] | – | 740 | –
4 | O=C(CN1CCCCC1)NC(Cc1c[nH]c2ccccc12)C(=O)NCc1ccccc1Cl (centres unmarked) [Example 7] | 730 | 2200 | –
5 | COc1ccccc1CNC(=O)C(Cc1c[nH]c2ccccc12)NC(=O)CN1CCN(c2ccccc2)CC1 (centres unmarked) [Example 14] | 67 | 650 | –
6 | O=C(CN1CCN(c2ccccc2)CC1)NC(Cc1c[nH]c2ccccc12)C(=O)NCc1ccc(Cl)cc1 (centres unmarked) [Example 17] | 210 | 210 | –
7 | NC(Cc1c[nH]c2ccccc12)C(=O)OCc1ccccc1 (centres unmarked) [benzyl 3-(3-indolyl)-2-aminopropionate] | – | – | Inhibition of benzodiazepine receptor binding in vitro (benzodiazepine receptor): Inhibition; inhibition of estrogen binding to rat alpha-fetoprotein (rat alpha-fetoprotein): weak inhibition
8 | CC(N)(C(=O)OCc1ccccc1)c1c[nH]c2ccccc12 (centres unmarked) [benzyl (2-(3-indolyl)-2-aminopropionate] | – | – | inhibition of glucose transport in human erythrocytes [1]: inhibitor of glucose transport; antisickling activity (human erythrocytes): antisickling agent

The next lines start with results.

Row | IC50 (NK-1 receptor) [nM] | IC50 (human NK-2 receptor) [nM] | Structure (SMILES) | other results
9 | – | 1500 | O=C(CN1CC(=O)N(Cc2ccccc2)CC1=O)NC(Cc1c[nH]c2ccccc12)C(=O)NCc1ccccc1 (centres unmarked) [Example 3] | –
10 | – | 2100 | O=C(CN1CC(=O)N(Cc2ccccc2)CC1=O)NC(Cc1c[nH]c2ccccc12)C(=O)Nc1ccccc1 (centres unmarked) [Example 4] | –
11 | 41 | 82 | O=C(CN1CC(=O)N(Cc2ccccc2)CC1=O)NC(Cc1c[nH]c2ccccc12)C(=O)NCc1ccccc1Cl (centres unmarked) [Example 6] | –
12 | 78 | 3400 | CN1CCN(CC(=O)NC(Cc2c[nH]c3ccccc23)C(=O)NCc2ccccc2Cl)CC1 (centres unmarked) [Example 8] | –
13 | 30 | 240 | O=C(CN1CCN(c2ccccc2)CC1)NC(Cc1c[nH]c2ccccc12)C(=O)NCc1ccccc1Cl (centres unmarked) [Example 9] | –
14 | 140 | 570 | O=C(CN1CCC(c2ccccc2)CC1)NC(Cc1c[nH]c2ccccc12)C(=O)NCc1ccccc1Cl (centres unmarked) [Example 10] | –
15 | 34 | 240 | O=C(CN1CCN(Cc2ccccc2)CC1)NC(Cc1c[nH]c2ccccc12)C(=O)NCc1ccccc1Cl (centres unmarked) [Example 13, N-(2-chlorobenzyl)-3-(1H-indol-3-yl)-2-[(4-benzylpiperazin-1-yl)acetyl]amino]propanamide dihydrochloride salt] | –
16 | 180 | – | CN(Cc1ccccc1)C(=O)C(Cc1c[nH]c2ccccc12)NC(=O)CN1CCN(c2ccccc2)CC1 (centres unmarked) [Example 15] | –
17 | 140 | 430 | O=C(CN1CCN(c2ccccc2)CC1)NC(Cc1c[nH]c2ccccc12)C(=O)NCc1ccccc1 (centres unmarked) [Example 16] | –
18 | 95 | 3100 | CN1CC(=O)N(CC(=O)NC(Cc2c[nH]c3ccccc23)C(=O)NCc2ccccc2Cl)CC1=O (centres unmarked) [Example 18] | –

Reference: patent publication US5565568A, “2-acylaminopropanamides as tachykinin receptor antagonists” (Eli Lilly and Company, priority 1995, dated 1996)
